Measured values: patent US20080108645A1, “Dihydrotetrabenazines And Pharmaceutical Compositions Containing Them” (CAMBRIDGE LABORATORIES, (IRELAND), LTD., priority 2004, published 2008)

How the values were obtained:
Dopamine D3 Receptor = target: T1, Dopamine D3 Receptor (Homo sapiens, UniProt P35462); experiment: Dopamine D3 receptor radioligand binding; details: 10 μM; 0.7 nM [3H] Spiperone
T1 construct: expressed in transfected cells; host or cells: CHO cells
Experimental: (a) Adrenergic α2A Receptor: • Reference: S. Uhlen et al. J. Pharmacol. Exp. Ther., 271:1558-1565 (1994) • Source: Human recombinant insect Sf9 cells • Ligand: 1 nM [^3H] […] J. Pharmacol., 99:803-809, (1990) • Source: Wistar rat cerebral cortex • Ligand: 2 nM [3H]

Male Sprague-Dawley rats = experiment: Spontaneous locomotor activity in rats (sedative properties); assay type: in vivo, rat; details: for sedative effect (in words): 0.3-10 mg/kg i.p., 45 minutes and 3 hours after administration
Experimental: A study was carried out in rats to determine whether the dihydrotetrabenazine isomers of the invention have sedative properties. The effects of the isomers on spontaneous locomotor activity in rats were compared with the effects produced by tetrabenazine and haloperidol using the methods set out below.
Male Sprague-Dawley rats, (Charles River Laboratories, Saint-Germain/L'Arbresle, France), weighing 200-250 g at the beginning of the study, were used for the studies. The rats were housed, 2 or 3 per cage, in Makrolon type III cages, in a room set up with the following environmental conditions: temperature: 20±2° C., humidity: minimum 45%, air changes: >12 per hour, light/dark cycle of 12 h/12 h [on at 7:00 a.m.]. The rats were allowed to acclimatize to their conditions for at least five days before commencement of the study. The rats received food (Dietex, Vigny, France, ref. 811002) and water (tap water in water bottle) ad libitum.
Solutions of each test compound in corn oil were freshly prepared on the day of the experiment. Haloperidol was prepared in hydroxyethylcellulose, 0.5% in deionized water. Either the vehicle or the test compounds were administered as a single dose (0.3, 1, 3 and 10 mg/kg, 2 mL/kg i.p.). The reference compound haloperidol (1 mg/kg) was administered i.p. (2 mL/kg).
The animals were placed in plexiglass cages under a video camera in a room with low light intensity (maximum 50 lux). At forty five minutes and 3 hours after administration, locomotor activity was determined during 20 minute periods using a video image analyzer (Videotrack, View Point, France). Locomotor activity was recorded in the reference group (haloperidol) at 1 hour after administration. The number and duration of ambulatory movements and duration of inactivity was measured. At the end of the locomotor activity measurement (45 minutes and 3 hours), palpebral closure and arousal were be scored as follows in the plexiglass cage:
The number of occurrences and duration (in seconds) of ambulatory (large) movements and the duration of periods of inactivity (seconds) was determined during two 20 minute periods (45 minutes and 3 hours after administration) using a video image analyzer (Videotrack, ViewPoint, Lyon, France). Image tracking was performed using a video camera placed above the plexiglass cage, recording overall locomotor activity. Images recorded with the video camera were digitalized and displacement of the centre of gravity of the digital image spots was tracked and analyzed using the following method: the speed of displacement of the centre of gravity of the spot was measured and two threshold values were set to define the type of movement: threshold 1 (high speed) and threshold 2 (low speed). When the animal moved and the speed of displacement of the centre of gravity of the spot was above threshold 1, the movement was considered as an ambulatory movement.
The results were expressed as the means±SEMs of the 12 individual values. Statistical analyses were carried out using ANOVA (one way) and Dunnett's t-test and with the non parametric test of Kruskal-Wallis followed by a Mann & Whitney U-test for the sedation cotation. A p value of p<0.05 was taken as indicating significance.

[1] = tested on: Catechol O-Methyl Transferase (COMT); experiment: Catechol O-Methyl Transferase (COMT) inhibition; assay type: biochemical, Porcine; details: for Percentage Inhibition of Enzyme Activity, COMT: 10 μM
Experimental: Isomers B and C were tested for their ability to inhibit enzymes involved in the processing of monoamines in the CNS, namely Catechol O-Methyl Transferase (COMT), Monoamine Oxidase A and Monoamine Oxidase B. The assay methods used are described below and the results are set out in Table 7.
(a) Catechol O-Methyl Transferase (COMT) Inhibition • Source: Porcine liver • Substrate: 3 mM catechol+S-adenosyl-L-[^3H]methionine • Vehicle: 1% DMSO • Pre-incubation time/Temp: None • Incubation time: 60 minutes @ 37° C. • Incubation buffer: 100 mM potassium phosphate, 10 mM MgCl2, 3 mM DTT containing 12 units/ml adenosine deaminase, pH 7.4 • Quantitation method: Quantitation of [^3H] guiacol. • Significance criteria: ≧50% of maximum stimulation or inhibition (b) Monoamine Oxidase MAO-A Inhibition • Source: Human recombinant • Substrate: 50 μM kynuramine • Vehicle: 1% DMSO • Pre-incubation time/Temp: 15 minutes @ 37° C. • Incubation time: 60 minutes @ 37° C. • Incubation buffer: 100 mM KH2PO4, pH 7.4 • Quantitation method: Spectrofluorimetric quantitation of 4-hydroxyquinoline • Significance criteria: ≧50% of maximum stimulation or inhibition (c) Monoamine Oxidase MAO-B Inhibition • Source: Human recombinant • Substrate: 50 μM kynuramine • Vehicle: 1% DMSO • Pre-incubation time/Temp: 15 minutes @ 37° C. • Incubation time: 60 minutes @ 37° C. • Incubation buffer: 100 mM KH2PO4, pH 7.4 • Quantitation method: Spectrofluorimetric quantitation of 4-hydroxyquinoline • Significance criteria: ≧50% of maximum stimulation or inhibition

[2] = 0.3 mg/kg i.p., 45 minutes after administration
[3] = 0.3 mg/kg i.p., 3 hours after administration
[4] = 1 mg/kg i.p., 45 minutes after administration
[5] = 1 mg/kg i.p., 3 hours after administration
[6] = 3 mg/kg i.p., 45 minutes after administration
[7] = 3 mg/kg i.p., 3 hours after administration
[8] = 10 mg/kg i.p., 45 minutes after administration
[9] = 10 mg/kg i.p., 3 hours after administration

T1 sequence (P35462 whole entry): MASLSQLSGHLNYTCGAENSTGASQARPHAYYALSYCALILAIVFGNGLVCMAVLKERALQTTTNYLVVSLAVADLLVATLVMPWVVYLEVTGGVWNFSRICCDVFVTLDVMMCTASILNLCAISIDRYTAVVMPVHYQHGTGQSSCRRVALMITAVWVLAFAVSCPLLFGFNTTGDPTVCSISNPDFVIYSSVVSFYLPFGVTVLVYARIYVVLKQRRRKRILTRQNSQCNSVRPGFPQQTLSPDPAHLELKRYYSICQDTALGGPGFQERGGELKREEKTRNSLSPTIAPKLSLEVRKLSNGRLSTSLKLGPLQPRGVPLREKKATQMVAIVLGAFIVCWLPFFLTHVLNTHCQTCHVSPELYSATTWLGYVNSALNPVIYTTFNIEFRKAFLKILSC

SMILES	Percentage Inhibition of Specific Binding, D3 Receptor (Dopamine D3 Receptor) [%]	Inactivity Duration (Male Sprague-Dawley rats; [2]) [s]	Large movements Duration (Male Sprague-Dawley rats; [2]) [s]	Large movements Occurrence (Male Sprague-Dawley rats; [2])	Inactivity Duration (Male Sprague-Dawley rats; [3]) [s]	Large movements Duration (Male Sprague-Dawley rats; [3]) [s]	Large movements Occurrence (Male Sprague-Dawley rats; [3])	Inactivity Duration (Male Sprague-Dawley rats; [4]) [s]	Large movements Duration (Male Sprague-Dawley rats; [4]) [s]	Large movements Occurrence (Male Sprague-Dawley rats; [4])	Inactivity Duration (Male Sprague-Dawley rats; [5]) [s]	Large movements Duration (Male Sprague-Dawley rats; [5]) [s]	Large movements Occurrence (Male Sprague-Dawley rats; [5])	Inactivity Duration (Male Sprague-Dawley rats; [6]) [s]	Large movements Duration (Male Sprague-Dawley rats; [6]) [s]	Large movements Occurrence (Male Sprague-Dawley rats; [6])	Inactivity Duration (Male Sprague-Dawley rats; [7]) [s]	Large movements Duration (Male Sprague-Dawley rats; [7]) [s]	Large movements Occurrence (Male Sprague-Dawley rats; [7])	Inactivity Duration (Male Sprague-Dawley rats; [8]) [s]	other results
COc1cc2c(cc1OC)[C@H]1C[C@@H](O)[C@@H](CC(C)C)CN1CC2 (single isomer, unassigned) [Isomer C, 3,11b-cis-dihydrotetrabenazine]	9	323.7 ± 25.6	79.2 ± 10.0	285 ± 34	519.3 ± 33.7	31.4 ± 6.0	113 ± 19	324.6 ± 38.1	71.8 ± 8.3	295 ± 30	510.2 ± 44.9	30.3 ± 6.5	128 ± 24	322.7 ± 27.8	84.0 ± 9.4	308 ± 36	493.6 ± 38.5	30.2 ± 5.5	125 ± 22	368.7 ± 30.9	Large movements Duration (Male Sprague-Dawley rats; [8]): 66.5 ± 9.9 s; Large movements Occurrence (Male Sprague-Dawley rats; [8]): 254 ± 32; Inactivity Duration (Male Sprague-Dawley rats; [9]): 465.7 ± 49.0 s; Large movements Duration (Male Sprague-Dawley rats; [9]): 42.7 ± 8.0 s; Large movements Occurrence (Male Sprague-Dawley rats; [9]): 164 ± 30; sedative effect (in words) (Male Sprague-Dawley rats): no sedative effects were observed; hyperlocomotor effect (in words) (Male Sprague-Dawley rats; 3 hours after administration): slight and non-significant hyperlocomotor effect; inhibitory activity against COMT (in words) [1]: no inhibitory activity; Percentage Inhibition of Enzyme Activity, COMT [1]: −22%
COc1cc2c(cc1OC)[C@H]1C[C@H](O)[C@@H](CC(C)C)CN1CC2 (single isomer, unassigned) [Isomer B, 3,11b-cis-dihydrotetrabenazine]	7	346.1 ± 36.9	72.0 ± 9.6	268 ± 36	566.4 ± 44.3	28.9 ± 9.2	101 ± 29	334.0 ± 23.2	87.0 ± 7.6	297 ± 22	525.8 ± 28.6	34.5 ± 6.2	125 ± 18	342.2 ± 33.3	89.1 ± 12.4	313 ± 38	530.5 ± 38.0	31.1 ± 6.5	113 ± 17	333.1 ± 26.9	Large movements Duration (Male Sprague-Dawley rats; [8]): 84.0 ± 11.2 s; Large movements Occurrence (Male Sprague-Dawley rats; [8]): 298 ± 37; Inactivity Duration (Male Sprague-Dawley rats; [9]): 515.0 ± 53.0 s; Large movements Duration (Male Sprague-Dawley rats; [9]): 30.9 ± 6.4 s; Large movements Occurrence (Male Sprague-Dawley rats; [9]): 120 ± 26; sedative effect (in words) (Male Sprague-Dawley rats): no sedative effects were observed; inhibitory activity against COMT (in words) [1]: no inhibitory activity; Percentage Inhibition of Enzyme Activity, COMT [1]: −12%
